In paper PMC11892739, “Site-specific molecular glues for the 14-3-3/Tau pS214 protein–protein interaction via reversible covalent imine tethering” (RSC Medicinal Chemistry, 2025):

Biological target: T1, 14-3-3ζ/Tau pS2 peptide interaction (Homo sapiens, UniProt P63104)
T1 construct: made in house; host or cells: NiCo21 (DE3) E. coli
T1 sequence (P63104 1-245): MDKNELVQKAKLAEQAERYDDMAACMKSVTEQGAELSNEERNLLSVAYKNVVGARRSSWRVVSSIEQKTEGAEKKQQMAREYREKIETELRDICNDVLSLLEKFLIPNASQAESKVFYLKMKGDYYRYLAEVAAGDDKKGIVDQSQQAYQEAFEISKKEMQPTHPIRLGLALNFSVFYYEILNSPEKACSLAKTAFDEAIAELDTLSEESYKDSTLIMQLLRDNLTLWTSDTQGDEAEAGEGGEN
Assay: Fluorescence anisotropy 14-3-3ζ titration in the presence of 250 μM compound and Tau pS2 peptide
Assay type: binding
Conditions: for SF250μM (stabilization factor): 250 μM compound, apparent KD compared to internal DMSO reference
Procedure: On the other hand, the PPI stabilizing potency of series 1 compounds was highly dependent on the position and chemical property of the substituent. […] The compound screen for these compounds was further complemented by 14-3-3ζ titration assays in the presence of a constant concentration of compound (250 μM) and Tau pS2 peptide (10 nM) (Fig. 3c, ESI ^† Fig. S6).
This statement is strengthened by the diminished stabilizing activity when shifting the more polar chloro substituent from the para (14) to the ortho (5) to the meta position (8), respectively. […]
chromatography (HisTrap high performance cartridges, Cytiva). Typically two 5 mL columns were used for a 2 L culture in which the lysate was loaded on the column, washed with 10 CV wash buffer (50 mM Hepes, pH 8.0, 300 mM NaCl, 25 mM imidazole, 2 mM βME), and eluted with several fractions (2-4 CV) of elution buffer (50 mM Hepes, pH 8.0, 300 mM NaCl, 250 mM imidazole, 2 mM βME). Fractions containing the 14-3-3 protein were combined and dialyzed into 25 mM HEPES pH 8.0, 200 mM NaCl, 10 mM MgCl2, 2 mM βME, followed by dialysis into 25 mM HEPES, 100 mM NaCl, 10 mM MgCl2, 500 μM TCEP (adjusted to pH 8.0). Dialyzed protein was concentrated to ∼40 mg/mL, analyzed by Q -Tof LC/MS, and aliquots were flash -frozen for storage at −80 °C. For 14 -3-3σ∆c, 1 mg TEV per 100 mg purified protein was added to the dialysis to remove the purification tag. The cleaved sample was then again loaded on a 10 mL Ni-NTA column to separate the cleaved product from the expression tag and residual uncleaved protein. The flowthrough was loade d on a Superdex 75 pg 16/60 size exclusion column (GE Life Sciences) using 25 mM HEPES, 100 mM NaCl, 10 mM MgCl2, 500 μM TCEP (adjusted to pH = 8.0) as running buffer. Fractions containing the 14 -3-3 protein were pooled and concentrated to ∼60 mg/mL, analyzed Q -Tof LC/MS, and aliquots were flash -frozen for storage at −80°C.
Fluorescence Anisotropy – compound titration
Compound titration assays were performed by titrating compounds (in 1% DMSO, starting at 500 μM) in a 2-fold dilution series to preformed complex of fluorescein -labeled Tau pS2 (10 nM) and 14 -3-3ζ (100 nM) (which represents approximately 20% bound Tau pS2 peptide to 14 -3-3ζ to allow further complex formation by addition of fragments 1) in FA buffer (10 mM HEPES pH 7.4, 150 mM NaCl, 50 µM TCEP, 0.1% (v/v) Tween20, 0.1% (w/v) BSA). Dilution series were made in polystyrene low -volume 384 -well plates (Corning #4514, Black Round Bottom). Measurements were performed directly after plate preparation, using a Tecan SPARK plate reader at room temperature ( λex: 485±20 nm; λem: 535±25 nm; mirror: automatic; flashes: 30; settle time: 1 ms; gain: optimal; Z -position: calculated from well). Wells containing only fluorescein labelled peptide were used to set as G -factor calibrated from these wells. All data were analyzed using GraphPad Prism (10.0.1) and fitted with a four -parameter logistic model (4PL) to determine binding affinities (dissociation constant, KD). All data shown is background corrected for the signal without 14 -3-3ζ and the mean and standard deviation of technical duplicate is plotted, assay performed in a scientific duplicate for hit compounds.
Fluorescence Anisotropy – 14-3-3 titrations in the presence of compound To characterize the affinity of the Tau peptides for 14-3-3 in the presence of compound, 14-3-3ζ or γ was titrated in a 2-fold dilution series starting at 400 (for the 14-3-3ζ titrations to Tau pS2) or 800 (for the 14-3-3γ titrations to Tau pS214 or pS324) µM. 14-3-3 was added to 10 nM of fluorescein-labeled peptide (Tau pS2, Tau pS214 or Tau pS324) in the presence of 250 µM compound (1% DMSO). The assays were performed in a similar way as described above. Data shown is the average and standard deviation of a technical duplicate, top plateau corrected where needed, assay performed in a scientific duplicate.
Fluorescence Anisotropy – peptide screen […]

Row | SMILES | SF250μM (stabilization factor) | stabilization of the 14-3-3ζ/Tau pS2 peptide complex (screening hits)
1 | O=Cc1ccc(-n2ccnc2-c2ccccc2)cc1Br [Compound 1] | 23 | 23 fold
2 | O=Cc1ccc(-n2ccnc2-c2ccc(C(F)(F)F)cc2)cc1Br [Compound 20] | 13 | 
3 | O=Cc1ccc(-n2ccnc2-c2ccc(Cl)cc2)cc1Br [Compound 14] | 8.9 | 
4 | O=Cc1ccc(-n2ccnc2-c2ccc(OC(F)(F)F)cc2)cc1Br [Compound 21] | 11 | 
5 | N#Cc1ccc(-c2nccn2-c2ccc(C=O)c(Br)c2)cc1 [Compound 22] | 34 | 
6 | Cc1cccc(-c2nccn2-c2ccc(C=O)c(Br)c2)c1 [Compound 6] | 10 | 
7 | Cc1ccc(-c2nccn2-c2ccc(C=O)c(Br)c2)cc1 [Compound 11] | 29 | 
8 | CCc1ccc(-c2nccn2-c2ccc(C=O)c(Br)c2)cc1 [Compound 18] | 37 | 
9 | O=Cc1ccc(-n2ccnc2-c2ccc(I)cc2)cc1Br [Compound 15] | 3.1 | 
10 | O=Cc1ccc(-n2ccnc2-c2ccc(F)cc2)cc1Br [Compound 13] | 33 | 
